Results taken from patent US11167007B2, “FOXM1 modulators and uses thereof” (City of Hope, priority 2016, dated 2021).
Entries after “also recorded” stand apart in the source; their conditions may differ.

Legend:
AR [1] = target: T1, AR (Homo sapiens, UniProt P10275); assay: FRET-based AR conformation change reporter (CARY) in C2C12 muscle cells; type: cell-based, murine; design: Full length AR with cyan fluorescent protein (CFP) or yellow fluorescent protein (YFP) fused to either end (CARY); expressed in transfected cells; settings: FRET or luciferase
T1 sequence (P10275 1-920): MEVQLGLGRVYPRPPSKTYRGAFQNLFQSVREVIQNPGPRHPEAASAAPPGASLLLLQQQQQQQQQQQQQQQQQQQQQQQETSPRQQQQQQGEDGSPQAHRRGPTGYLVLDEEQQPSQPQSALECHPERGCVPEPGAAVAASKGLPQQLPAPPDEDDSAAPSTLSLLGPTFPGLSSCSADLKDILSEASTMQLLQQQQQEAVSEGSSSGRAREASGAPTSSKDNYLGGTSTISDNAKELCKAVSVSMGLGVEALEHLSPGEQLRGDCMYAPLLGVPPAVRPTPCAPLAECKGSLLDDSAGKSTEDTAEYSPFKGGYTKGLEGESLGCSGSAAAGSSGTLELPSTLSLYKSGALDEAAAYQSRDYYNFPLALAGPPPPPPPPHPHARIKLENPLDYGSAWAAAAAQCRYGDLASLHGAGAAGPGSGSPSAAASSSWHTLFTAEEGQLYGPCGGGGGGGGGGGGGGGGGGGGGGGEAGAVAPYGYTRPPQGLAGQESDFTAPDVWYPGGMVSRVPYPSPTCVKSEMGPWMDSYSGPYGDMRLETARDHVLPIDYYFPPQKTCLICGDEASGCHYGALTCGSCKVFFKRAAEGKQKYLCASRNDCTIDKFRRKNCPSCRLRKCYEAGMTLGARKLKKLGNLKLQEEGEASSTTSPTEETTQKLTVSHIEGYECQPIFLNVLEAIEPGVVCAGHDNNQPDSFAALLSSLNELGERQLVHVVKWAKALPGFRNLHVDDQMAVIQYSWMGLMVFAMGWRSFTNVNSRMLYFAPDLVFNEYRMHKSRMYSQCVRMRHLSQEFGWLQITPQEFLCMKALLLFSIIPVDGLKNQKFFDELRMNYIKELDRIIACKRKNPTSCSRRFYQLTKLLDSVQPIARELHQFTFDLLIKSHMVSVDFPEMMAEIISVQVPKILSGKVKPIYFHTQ
Description: (§1) Creation of stable C-AR-Y reporter cell lines. Cell lines listed above were either transfected with a plasmid or a virus containing the CFP-AR-YFP construct preceding an IRES and hygromycin resistance gene and clonal stable cell lines selected. Qualification criteria for the transfected cell lines were described by Jones et al, ACS Chem Biol, 3(7):412-8 (2008).
(§2) Screen for AR-modulators. Screening was performed essentially as described by Jones et al, ACS Chem Biol, 3(7):412-8 (2008). Briefly, C-AR-Y reporter GTI-7 were transferred to 96 well plates and treated with library compounds for 24 hours. […] The compounds to be tested were from the NCI/DTP Open Chemical Repository's Approved Oncology Drugs Set II, Diversity Set II and Mechanistic Set. […] After 24 hours, medium was aspirated and FRET was measured as previously described using a monochromator-based fluorescence plate reader (M1000, Tecan, Inc.). Jones et al, ACS Chem Biol, 3(7):412-8 (2008). […]
(§3) In order to identify potential cell-type selective AR modulators, the FRET-based assay of AR conformation change was utilized. […] This produces an accurate and quantifiable read-out of AR activity. […] Candidate hits were then further evaluated by dose response. […] In addition to FRET, AR transcriptional activity was also assessed in several cell lines by transfecting cells with a luciferase reporter driven by the human PSA promoter. […]

AR [2] = target: T1, AR; assay: FRET-based AR conformation change reporter (CARY) in LNCaP C4 prostate cells; type: cell-based; design: Full length AR with cyan fluorescent protein (CFP) or yellow fluorescent protein (YFP) fused to either end (CARY); expressed in transfected cells; settings: LNCaP C4 prostate cancer cells
Description: as §1, §2, §3

AR-FOXM1 co-localization = type: cell-based, murine; settings: GT1-7 CARY cells, 24 hours, FIG. 4B
Description: Cells were fixed in 2% paraformaldehyde prior to incubating with primary antibody (FOXM1: mouse, AbCam) overnight at 4° C. Following washing, secondary antibody (Alexa 954 goat anti-mouse, Invitrogen) was applied for 45 minutes at 37° C. After washing, slides were mounted and analyzed using a confocal microscope (Zeiss). The coloc-2 Image J plug-in (Fiji) was used to quantify co-localization of AR and FOXM1 from three independent samples using both Li's Intensity Correlation Quotient (ICQ) and Manders split coefficients co-localization values. One-way analysis of variance was applied to determine statistical significant among groups, where p<0.05 was considered significant.

Row | SMILES | AR inhibitor (antagonist) activity in words (AR [1]) | AR inhibitor activity in words (AR [2]; listed as Siomycin A) | AR inhibitor activity in words (AR [2]; listed as siomycin) | association (co-localization) between FOXM1 and AR (AR-FOXM1 co-localization)
1 | C=C(NC(=O)C(=C)NC(=O)c1csc(C2=N[C@@H]3c4csc(n4)[C@H]4NC(=O)c5csc(n5)[C@H]([C@](C)(O)[C@@H](C)O)NC(=O)[C@H]5CSC(=N5)/C(=C/C)NC(=O)[C@H]([C@@H](C)O)NC(=O)c5csc(n5)[C@]3(CC2)NC(=O)[C@H](C)NC(=O)C(=C)NC(=O)C(=C)NC(=O)[C@H](C(C)C)N[C@@H]2C=Cc3c([C@H](C)O)cc(nc3[C@H]2O)C(=O)O[C@@H]4C)n1)C(N)=O [NSC285116, siomycin A] | little to no activity; also recorded: not C2C12 muscle cells | little to no activity | not as sensitive | –
2 | C=C(NC(=O)C(=C)NC(=O)c1csc(C2=N[C@@H]3c4csc(n4)[C@H]4NC(=O)c5csc(n5)[C@H]([C@](C)(O)[C@@H](C)O)NC(=O)[C@H]5CSC(=N5)/C(=C/C)NC(=O)[C@H]([C@@H](C)O)NC(=O)c5csc(n5)[C@]3(CC2)NC(=O)[C@H](C)NC(=O)C(=C)NC(=O)[C@H](C)NC(=O)[C@H]([C@@H](C)CC)N[C@@H]2C=Cc3c([C@H](C)O)cc(nc3[C@H]2O)C(=O)O[C@@H]4C)n1)C(N)=O [thiostrepton] | – | – | – | not significantly affected
